Source: the NIST ThermoML archive (doi:10.1021/acs.jced.6b00536)
± gives the expanded uncertainty stated by the source.

Test: xn = mol fraction of the nth substance listed
Conditions: Gas, Frequency=0.05 MHz, Single path-length method, x2 = 0.056

FC(F)(F)C(F)(F)C(F)(F)F [octafluoropropane] + FC(F)(F)C(F)(F)F
Conditions | speed of sound [m/s]
252.6 K, 87.5 kPa | 107.26 ± 0.1
252.6 K, 102.5 kPa | 106.66 ± 0.1
252.6 K, 119.8 kPa | 106.02 ± 0.1
252.6 K, 143.2 kPa | 105.14 ± 0.1
252.6 K, 173.7 kPa | 103.91 ± 0.1
252.6 K, 201.7 kPa | 102.77 ± 0.1
257.7 K, 88.9 kPa | 108.41 ± 0.1
257.7 K, 104.4 kPa | 107.85 ± 0.1
257.7 K, 122.1 kPa | 107.22 ± 0.1
257.7 K, 146.2 kPa | 106.37 ± 0.1
257.7 K, 177.3 kPa | 105.18 ± 0.1
257.7 K, 206.4 kPa | 104.1 ± 0.1
257.7 K, 234.4 kPa | 102.97 ± 0.1
262.8 K, 90.4 kPa | 109.57 ± 0.1
262.8 K, 106.6 kPa | 109.02 ± 0.1
262.8 K, 124.5 kPa | 108.41 ± 0.1
262.8 K, 148.9 kPa | 107.58 ± 0.1
262.8 K, 180.9 kPa | 106.46 ± 0.1
262.8 K, 210.8 kPa | 105.41 ± 0.1
262.8 K, 239.7 kPa | 104.33 ± 0.1
262.8 K, 276.7 kPa | 102.88 ± 0.1
267.9 K, 91.9 kPa | 110.71 ± 0.1
267.9 K, 108.6 kPa | 110.16 ± 0.1
267.9 K, 126.8 kPa | 109.58 ± 0.1
267.9 K, 151.8 kPa | 108.79 ± 0.1
267.9 K, 184.5 kPa | 107.7 ± 0.1
267.9 K, 215.2 kPa | 106.69 ± 0.1
267.9 K, 245.1 kPa | 105.66 ± 0.1
267.9 K, 283.1 kPa | 104.27 ± 0.1
273.1 K, 93.6 kPa | 111.83 ± 0.1
273.1 K, 110.7 kPa | 111.31 ± 0.1
273.1 K, 129.5 kPa | 110.76 ± 0.1
273.1 K, 154.8 kPa | 109.99 ± 0.1
273.1 K, 188.5 kPa | 108.94 ± 0.1
273.1 K, 220.5 kPa | 107.96 ± 0.1
273.1 K, 249.8 kPa | 106.97 ± 0.1
273.1 K, 290.4 kPa | 105.61 ± 0.1
278.2 K, 95.1 kPa | 112.94 ± 0.1
278.2 K, 112.5 kPa | 112.44 ± 0.1
278.2 K, 131.9 kPa | 111.89 ± 0.1
278.2 K, 157.6 kPa | 111.15 ± 0.1
278.2 K, 192.1 kPa | 110.13 ± 0.1
278.2 K, 224.8 kPa | 109.21 ± 0.1
278.2 K, 255 kPa | 108.24 ± 0.1
278.2 K, 296.7 kPa | 106.96 ± 0.1
283.2 K, 96.7 kPa | 114.02 ± 0.09
283.2 K, 114.4 kPa | 113.54 ± 0.09
283.2 K, 134 kPa | 113.01 ± 0.1
283.2 K, 160.5 kPa | 112.31 ± 0.1
283.2 K, 195.7 kPa | 111.31 ± 0.1
283.2 K, 229.1 kPa | 110.42 ± 0.1
283.2 K, 260.1 kPa | 109.49 ± 0.1
283.2 K, 303 kPa | 108.25 ± 0.1
288.3 K, 98.2 kPa | 115.1 ± 0.09
288.3 K, 116.5 kPa | 114.63 ± 0.09
288.3 K, 136.2 kPa | 114.12 ± 0.09
288.3 K, 163.5 kPa | 113.43 ± 0.1
288.3 K, 199.4 kPa | 112.48 ± 0.1
288.3 K, 233.4 kPa | 111.61 ± 0.1
288.3 K, 265.3 kPa | 110.72 ± 0.1
288.3 K, 309.2 kPa | 109.53 ± 0.1
293.3 K, 100.1 kPa | 116.16 ± 0.09
293.3 K, 118.3 kPa | 115.7 ± 0.09
293.3 K, 118.5 kPa | 115.72 ± 0.09
293.3 K, 138.4 kPa | 115.2 ± 0.09
293.3 K, 138.6 kPa | 115.22 ± 0.09
293.3 K, 166.2 kPa | 114.54 ± 0.09
293.3 K, 166.5 kPa | 114.55 ± 0.09
293.3 K, 203 kPa | 113.61 ± 0.1
293.3 K, 203.4 kPa | 113.63 ± 0.09
293.3 K, 237.8 kPa | 112.79 ± 0.1
293.3 K, 270.3 kPa | 111.92 ± 0.09
293.3 K, 271.3 kPa | 111.92 ± 0.09
293.3 K, 315.4 kPa | 110.77 ± 0.1
298.4 K, 101.4 kPa | 117.22 ± 0.09
298.4 K, 120.3 kPa | 116.79 ± 0.09
298.4 K, 140.7 kPa | 116.3 ± 0.09
298.4 K, 169.3 kPa | 115.65 ± 0.09
298.4 K, 206.9 kPa | 114.77 ± 0.09
298.4 K, 242.3 kPa | 113.97 ± 0.1
298.4 K, 275.6 kPa | 113.13 ± 0.1
298.4 K, 321.7 kPa | 112.02 ± 0.1
303.4 K, 102.9 kPa | 118.27 ± 0.09
303.4 K, 122.2 kPa | 117.85 ± 0.09
303.4 K, 143.1 kPa | 117.38 ± 0.09
303.4 K, 172.2 kPa | 116.75 ± 0.09
303.4 K, 210.6 kPa | 115.9 ± 0.09
303.4 K, 246.6 kPa | 115.1 ± 0.09
303.4 K, 280.7 kPa | 114.31 ± 0.1
303.4 K, 327.8 kPa | 113.24 ± 0.1
308.5 K, 104.4 kPa | 119.31 ± 0.09
308.5 K, 124.1 kPa | 118.88 ± 0.09
308.5 K, 145.4 kPa | 118.44 ± 0.09
308.5 K, 175.2 kPa | 117.83 ± 0.09
308.5 K, 214.1 kPa | 117 ± 0.09
308.5 K, 251 kPa | 116.24 ± 0.09
308.5 K, 285.8 kPa | 115.47 ± 0.09
308.5 K, 334 kPa | 114.43 ± 0.1
313.5 K, 105.9 kPa | 120.35 ± 0.09
313.5 K, 126 kPa | 119.93 ± 0.09
313.5 K, 147.7 kPa | 119.48 ± 0.09
313.5 K, 177.9 kPa | 118.9 ± 0.09
313.5 K, 217.6 kPa | 118.09 ± 0.09
313.5 K, 255.2 kPa | 117.36 ± 0.09
313.5 K, 290.9 kPa | 116.61 ± 0.09
313.5 K, 340 kPa | 115.6 ± 0.1
318.5 K, 107.5 kPa | 121.35 ± 0.09
318.5 K, 127.9 kPa | 120.96 ± 0.09
318.5 K, 150.1 kPa | 120.53 ± 0.09
318.5 K, 180.8 kPa | 119.96 ± 0.09
318.5 K, 221.2 kPa | 119.17 ± 0.09
318.5 K, 259.7 kPa | 118.47 ± 0.09
318.5 K, 296 kPa | 117.74 ± 0.09
318.5 K, 346.1 kPa | 116.75 ± 0.1
323.5 K, 109.2 kPa | 122.36 ± 0.09
323.5 K, 130 kPa | 121.97 ± 0.09
323.5 K, 152.5 kPa | 121.55 ± 0.09
323.5 K, 183.8 kPa | 121 ± 0.09
323.5 K, 225 kPa | 120.25 ± 0.09
323.5 K, 264.1 kPa | 119.56 ± 0.09
323.5 K, 301.1 kPa | 118.85 ± 0.09
323.5 K, 352.2 kPa | 117.91 ± 0.09
